{"source": "paper PMC5362036", "about": "“Cohesive Properties of the Caulobacter crescentus Holdfast Adhesin Are Regulated by a Novel c-di-GMP Effector Protein” (mBio, 2017)", "type_in_all_cases": "binding", "key": {"[1]": {"biological_target": "T1, HfsK (CC3689) (Caulobacter vibrioides, UniProt Q9A277, R102A)", "T1 construct": "gene CC_3689; full length; His-tagged (ITC) or StrepII-tagged (mutants, UV cross-linking), expressed in E. coli; tags kept as far as told", "T1 sequence (Q9A277 entry or part of it R102A)": "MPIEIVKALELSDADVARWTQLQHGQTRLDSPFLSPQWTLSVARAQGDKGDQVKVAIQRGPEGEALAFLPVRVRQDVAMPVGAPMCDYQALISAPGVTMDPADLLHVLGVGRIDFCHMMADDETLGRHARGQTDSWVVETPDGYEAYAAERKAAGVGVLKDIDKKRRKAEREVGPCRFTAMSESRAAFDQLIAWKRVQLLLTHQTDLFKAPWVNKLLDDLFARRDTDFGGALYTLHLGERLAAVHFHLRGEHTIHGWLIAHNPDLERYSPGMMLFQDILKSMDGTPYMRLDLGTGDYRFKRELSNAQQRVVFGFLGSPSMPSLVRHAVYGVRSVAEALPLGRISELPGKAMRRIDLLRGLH", "test": "UV cross-linking with […]c-di-GMP", "settings": "StrepII-tagged, 1 uM protein; labelled compound"}, "[2]": {"biological_target": "T2, HfsK (CC3689) (Caulobacter vibrioides, UniProt Q9A277, R240A)", "T2 construct": "gene CC_3689; full length; His-tagged (ITC) or StrepII-tagged (mutants, UV cross-linking), expressed in E. coli; tags kept as far as told", "T2 sequence (Q9A277 entry or part of it R240A)": "as the sequence (Q9A277 entry or part of it R102A) above, with A102R, R240A counted along it", "test": "UV cross-linking with […]c-di-GMP", "settings": "StrepII-tagged, 1 uM protein; labelled compound"}, "[3]": {"biological_target": "T3, HfsK (CC3689) (Caulobacter vibrioides, UniProt Q9A277, R151A)", "T3 construct": "gene CC_3689; full length; His-tagged (ITC) or StrepII-tagged (mutants, UV cross-linking), expressed in E. coli; tags kept as far as told", "T3 sequence (Q9A277 entry or part of it R151A)": "as the sequence (Q9A277 entry or part of it R102A) above, with A102R, R151A counted along it", "test": "UV cross-linking with […]c-di-GMP", "settings": "StrepII-tagged, 1 uM protein; labelled compound"}, "[4]": {"biological_target": "T4, HfsK (CC3689) (Caulobacter vibrioides, UniProt Q9A277, R267A)", "T4 construct": "gene CC_3689; full length; His-tagged (ITC) or StrepII-tagged (mutants, UV cross-linking), expressed in E. coli; tags kept as far as told", "T4 sequence (Q9A277 entry or part of it R267A)": "as the sequence (Q9A277 entry or part of it R102A) above, with A102R, R267A counted along it", "test": "UV cross-linking with […]c-di-GMP", "settings": "StrepII-tagged, 1 uM protein; labelled compound"}, "[5]": {"biological_target": "T5, HfsK (CC3689) (Caulobacter vibrioides, UniProt Q9A277, R112A)", "T5 construct": "gene CC_3689; full length; His-tagged (ITC) or StrepII-tagged (mutants, UV cross-linking), expressed in E. coli; tags kept as far as told", "T5 sequence (Q9A277 entry or part of it R112A)": "as the sequence (Q9A277 entry or part of it R102A) above, with A102R, R112A counted along it", "test": "UV cross-linking with […]c-di-GMP", "settings": "StrepII-tagged, 1 uM protein; labelled compound"}, "[6]": {"biological_target": "T6, HfsK (CC3689) (Caulobacter vibrioides, UniProt Q9A277)", "T6 construct": "gene CC_3689; full length; His-tagged (ITC) or StrepII-tagged (mutants, UV cross-linking), expressed in E. coli; tags kept as far as told", "T6 sequence (Q9A277 entry or part of it)": "as the sequence (Q9A277 entry or part of it R102A) above, with A102R counted along it", "test": "isothermal titration calorimetry", "text": "isothermal titration calorimetry on HfsK (CC3689) | His-CC3689 bound c-di-GMP in a concentration-dependent manner with an equilibrium disassociation constant (Kd)"}}}
{"smiles": "Nc1nc2c(ncn2[C@@H]2O[C@@H]3COP(=O)(O)O[C@H]4[C@@H](O)[C@H](n5cnc6c(=O)[nH]c(N)nc65)O[C@@H]4COP(=O)(O)O[C@H]3[C@H]2O)c(=O)[nH]1", "note": "[c-di-GMP]", "values": [{"measurement": "UV cross-linking with [33P]c-di-GMP", "setting": "[1]", "value": "residues of HfsK (R102, R112, R151, R240, and R267) were replaced with alanine"}, {"measurement": "UV cross-linking with [33P]c-di-GMP", "setting": "[2]", "value": "residues of HfsK (R102, R112, R151, R240, and R267) were replaced with alanine"}, {"measurement": "UV cross-linking with [33P]c-di-GMP", "setting": "[3]", "value": "residues of HfsK (R102, R112, R151, R240, and R267) were replaced with alanine"}, {"measurement": "UV cross-linking with [33P]c-di-GMP", "setting": "[4]", "value": "residues of HfsK (R102, R112, R151, R240, and R267) were replaced with alanine"}, {"measurement": "UV cross-linking with [33P]c-di-GMP", "setting": "[5]", "value": "HfsKR112a as the only mutant variant with reduced binding affinity for c-di-GMP"}, {"measurement": "Kd", "setting": "[6]", "value": 724, "unit": "nM"}]}
